Measured values as given in ChEMBL document CHEMBL1201862, “PubChem BioAssay data set” (2004).
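Cultured in 96-well plates, cells were exposed to test compound for 48 hours across five concentrations. Abbreviation: GI50, concentration required for 50% inhibition of growth.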 Calls of active or inactive are those of the source. Cut-off read from the data, not from the text of the source: active = GI50 up to about 1.1 µM and inactive = higher.

Legend:
Assay in all cases: DTP human tumour cell line panel, 48 h
[1] = tested on: CCRF-CEM
[2] = tested on: HCT-116
[3] = tested on: HOP-62
[4] = tested on: HT-29
[5] = tested on: KM12
[6] = tested on: Malme-3M
[7] = tested on: NCI-H522
[8] = tested on: OVCAR-4
[9] = tested on: OVCAR-8
[10] = tested on: SF-268
[11] = tested on: SF-539
[12] = tested on: SK-MEL-28
[13] = tested on: SK-MEL-2
[14] = tested on: SK-MEL-5
[15] = tested on: UACC-257
[16] = tested on: UACC-62
[17] = tested on: DU-145
[18] = tested on: HCT-15
[19] = tested on: MDA-MB-435
[20] = tested on: MOLT-4

SMILES | GI50 [1] | GI50 [2] | GI50 [3] | GI50 [4] | GI50 [5] | GI50 [6] | GI50 [7] | GI50 [8] | GI50 [9] | GI50 [10] | GI50 [11] | GI50 [12] | GI50 [13] | GI50 [14] | GI50 [15] | GI50 [16] | GI50 [17] | GI50 [18] | GI50 [19] | GI50 [20]
COc1ccc2[nH]c3c(C)c4cc[n+](C)cc4c(C)c3c2c1 | 1.14 µM (inactive) | 1.39 µM (inactive) | 0.358 µM (active) | 3.23 µM (inactive) | 0.964 µM (active) | 0.733 µM (active) | 0.548 µM (active) | 1.91 µM (inactive) | 0.169 µM (active) | 0.148 µM (active) | 0.24 µM (active) | 1.32 µM (inactive) | 2.87 µM (inactive) | 1.18 µM (inactive) | 8.41 µM (inactive) | 2.16 µM (inactive) | – | – | – | –
Cc1c2c(n(CCc3ccc(Cl)cc3)c1C)NN=C(C#N)S2(=O)=O | – | > 100 µM (inactive) | > 100 µM (inactive) | > 100 µM (inactive) | > 100 µM (inactive) | 51.8 µM (inactive) | – | > 100 µM (inactive) | – | 48.5 µM (inactive) | > 100 µM (inactive) | > 100 µM (inactive) | > 100 µM (inactive) | > 100 µM (inactive) | > 100 µM (inactive) | > 100 µM (inactive) | > 100 µM (inactive) | > 100 µM | 42.2 µM (inactive) | 69.3 µM (inactive)
Nc1ncnc2c1ncn2C1CCC(CO)O1 (stereo not drawn) | > 100 µM (inactive) | > 100 µM (inactive) | > 100 µM (inactive) | > 61.1 µM (inactive) | > 100 µM (inactive) | > 100 µM (inactive) | > 100 µM (inactive) | > 82.8 µM (inactive) | > 79.4 µM (inactive) | > 60.5 µM (inactive) | > 100 µM (inactive) | > 63.2 µM (inactive) | > 100 µM (inactive) | > 100 µM (inactive) | > 100 µM (inactive) | > 100 µM (inactive) | – | > 100 µM | – | > 100 µM (inactive)
OC1(c2ccc(Cl)cc2)c2c(c3ccccc3c3ccccc23)C2=NCCN21 (stereo not drawn) | > 100 µM (inactive) | 10.9 µM (inactive) | 11.3 µM (inactive) | 14.6 µM (inactive) | 16.7 µM (inactive) | 16.5 µM (inactive) | – | 3.43 µM (inactive) | 11.9 µM (inactive) | 10.6 µM (inactive) | 11.2 µM (inactive) | 18.3 µM (inactive) | 18.7 µM (inactive) | 29 µM (inactive) | 20.4 µM (inactive) | 15.9 µM (inactive) | 17.4 µM (inactive) | 24.3 µM | 29.7 µM (inactive) | 10.8 µM (inactive)
COc1cc(C(=O)Nc2cc(C(N)=O)cc(OC)c2OC)cc(NC(=O)/C=C/c2ccccc2)c1OC | 55.5 µM (inactive) | – | – | > 100 µM (inactive) | > 100 µM (inactive) | 2.63 µM (inactive) | 3.43 µM (inactive) | > 100 µM (inactive) | > 100 µM (inactive) | – | > 100 µM (inactive) | > 100 µM (inactive) | – | – | > 100 µM (inactive) | 15.2 µM (inactive) | > 100 µM (inactive) | > 100 µM | > 100 µM (inactive) | 52.4 µM (inactive)
CCOC(=O)C(COS(C)(=O)=O)(COS(C)(=O)=O)C(=O)OCC | > 100 µM (inactive) | > 100 µM (inactive) | – | > 100 µM (inactive) | > 100 µM (inactive) | – | > 100 µM (inactive) | > 100 µM (inactive) | > 100 µM (inactive) | > 100 µM (inactive) | – | > 100 µM (inactive) | – | > 100 µM (inactive) | > 100 µM (inactive) | – | > 100 µM (inactive) | > 100 µM | > 100 µM (inactive) | > 100 µM (inactive)
CCOC(=O)C(=O)NCCCN1CCOCC1 | > 100 µM (inactive) | > 100 µM (inactive) | > 100 µM (inactive) | > 100 µM (inactive) | > 100 µM (inactive) | > 100 µM (inactive) | > 100 µM (inactive) | > 100 µM (inactive) | > 100 µM (inactive) | > 100 µM (inactive) | > 100 µM (inactive) | > 100 µM (inactive) | > 100 µM (inactive) | > 100 µM (inactive) | > 100 µM (inactive) | > 100 µM (inactive) | – | > 100 µM | – | > 100 µM (inactive)
CC(=O)OCCN(C1=NCCN1)/[N+](C=c1ccc(=C=[N-])cc1)=C/c1ccc(C#N)cc1 | > 100 µM (inactive) | > 100 µM (inactive) | > 100 µM (inactive) | > 100 µM (inactive) | > 100 µM (inactive) | > 100 µM (inactive) | > 100 µM (inactive) | > 100 µM (inactive) | > 100 µM (inactive) | > 100 µM (inactive) | > 100 µM (inactive) | > 100 µM (inactive) | > 100 µM (inactive) | > 100 µM (inactive) | > 100 µM (inactive) | > 100 µM (inactive) | – | > 100 µM | > 100 µM (inactive) | > 100 µM (inactive)
O=[N+]([O-])c1ccc(COc2cccc3cccnc23)cc1 | 3.94 µM (inactive) | 25.2 µM (inactive) | 30 µM (inactive) | 31.6 µM (inactive) | 23.8 µM (inactive) | 33 µM (inactive) | 4.53 µM (inactive) | 12.4 µM (inactive) | 20.5 µM (inactive) | 19.9 µM (inactive) | 29.6 µM (inactive) | 14.8 µM (inactive) | 14.6 µM (inactive) | 17.1 µM (inactive) | 20.2 µM (inactive) | 17.3 µM (inactive) | – | 7.1 µM | – | 4.98 µM (inactive)
COC(=O)c1ccccc1NC(=O)C(=O)CC(=O)CC(c1ccccc1)c1c(O)c2ccccc2oc1=O (stereo not drawn) | > 100 µM (inactive) | > 100 µM (inactive) | > 100 µM (inactive) | > 100 µM (inactive) | > 100 µM (inactive) | > 100 µM (inactive) | > 100 µM (inactive) | > 100 µM (inactive) | > 100 µM (inactive) | > 100 µM (inactive) | > 100 µM (inactive) | > 100 µM (inactive) | > 100 µM (inactive) | > 100 µM (inactive) | > 100 µM (inactive) | > 100 µM (inactive) | – | – | – | > 100 µM (inactive)
Cc1n[nH]c(=O)n1-c1cccnc1 | > 100 µM (inactive) | > 100 µM (inactive) | > 100 µM (inactive) | > 100 µM (inactive) | > 100 µM (inactive) | > 100 µM (inactive) | > 100 µM (inactive) | > 100 µM (inactive) | > 100 µM (inactive) | > 100 µM (inactive) | > 100 µM (inactive) | > 100 µM (inactive) | – | > 100 µM (inactive) | > 100 µM (inactive) | – | > 100 µM (inactive) | > 100 µM | > 100 µM (inactive) | > 100 µM (inactive)
COC(=O)C(/C(=N/N)C(=O)Nc1cccc(O)c1)c1nc2ccccc2nc1O (stereo not drawn) | > 10 µM (inactive) | > 100 µM (inactive) | > 100 µM (inactive) | > 100 µM (inactive) | > 100 µM (inactive) | – | > 100 µM (inactive) | > 100 µM (inactive) | > 100 µM (inactive) | > 100 µM (inactive) | > 100 µM (inactive) | > 100 µM (inactive) | > 100 µM (inactive) | > 100 µM (inactive) | > 100 µM (inactive) | > 100 µM (inactive) | – | > 100 µM | > 100 µM (inactive) | > 100 µM (inactive)
N#CC(C#N)=C1/C(=C/C=C/C=C/C=C/c2ccc(N3CCCCC3)s2)S(=O)(=O)c2ccccc21 | 71.6 µM (inactive) | > 100 µM (inactive) | 33.7 µM (inactive) | > 100 µM (inactive) | > 100 µM (inactive) | – | 22.1 µM (inactive) | > 100 µM (inactive) | 67.3 µM (inactive) | – | > 100 µM (inactive) | > 100 µM (inactive) | > 100 µM (inactive) | > 100 µM (inactive) | > 100 µM (inactive) | > 100 µM (inactive) | 55 µM (inactive) | > 100 µM | > 100 µM (inactive) | 14.9 µM (inactive)
COC(=O)/C=C1\SC2(O\C1=N/c1ccccc1)C1CC3CC(C1)CC2C3 (stereo not drawn) | > 100 µM (inactive) | > 100 µM (inactive) | > 100 µM (inactive) | > 100 µM (inactive) | > 100 µM (inactive) | – | > 100 µM (inactive) | 36.1 µM (inactive) | > 100 µM (inactive) | – | > 100 µM (inactive) | > 100 µM (inactive) | > 100 µM (inactive) | > 100 µM (inactive) | > 100 µM (inactive) | > 100 µM (inactive) | > 10 µM (inactive) | > 100 µM | > 100 µM (inactive) | > 100 µM (inactive)
O=C(O)[C@@H](NS(=O)(=O)c1ccc(F)cc1)c1ccccc1 | > 100 µM (inactive) | > 100 µM (inactive) | > 100 µM (inactive) | > 100 µM (inactive) | – | > 100 µM (inactive) | > 100 µM (inactive) | > 100 µM (inactive) | > 100 µM (inactive) | > 100 µM (inactive) | > 100 µM (inactive) | > 100 µM (inactive) | > 100 µM (inactive) | > 100 µM (inactive) | > 100 µM (inactive) | > 100 µM (inactive) | – | > 100 µM | – | > 100 µM (inactive)
O=[N+]([O-])c1ccc(-c2nc3cc(Cl)ccc3[nH]2)cc1 | – | 49.2 µM (inactive) | > 100 µM (inactive) | 51.4 µM (inactive) | – | > 100 µM (inactive) | 14.4 µM (inactive) | 95.5 µM (inactive) | 59.6 µM (inactive) | > 100 µM (inactive) | 54.6 µM (inactive) | > 100 µM (inactive) | – | 51.4 µM (inactive) | 76 µM (inactive) | 81.1 µM (inactive) | 72.1 µM (inactive) | 52 µM | 41.6 µM (inactive) | 64 µM (inactive)
